Measured values published in patent US20100035753A1, “Fungicidal Mixtures Comprising Substituted 1-methylpyrazol-4-ylcarboxanilides” (BASF SE, priority 2007, published 2010).
Read-outs that look alike come from different tables or passages of the source.

Tests used:
Alternaria solani = assay: Use Example 1: preventative fungicidal control of early blight on tomatoes; assay type: in vivo; conditions: 0.25 ppm
Procedure: (§1) The active compounds, separately or jointly, were prepared as a stock solution comprising 25 mg of active compound which was made up to 10 ml using a mixture of acetone and/or DMSO and the emulsifier Uniperol® EL (wetting agent having an emulsifying and dispersing action based on ethoxylated alkylphenols) in a ratio by volume of solvent/emulsifier of 99:1. The mixture was then made up to 100 ml with water. This stock solution was diluted with the solvent/emulsifier/water mixture described to give the concentration of active compound stated below.
(§2) The visually determined percentages of infected leaf areas were converted into efficacies in % of the untreated control:
(§3) The efficacy (E) is calculated as follows using Abbot's formula: […]
(§4) α corresponds to the fungicidal infection of the treated plants in % and
(§5) β corresponds to the fungicidal infection of the untreated (control) plants in %
(§6) An efficacy of 0 means that the infection level of the treated plants corresponds to that of the untreated control plants; an efficacy of 100 means that the treated plants were not infected.
(§7) The expected efficacies of active compound combinations were determined using Colby's formula (Colby, S. R. “Calculating synergistic and antagonistic responses of herbicide combinations”, Weeds, 15, pp. 20-22, 1967) and compared with the observed efficacies.
(§8) Colby's formula: E=x+y−x·y/100 • E expected efficacy, expressed in % of the untreated control, when using the mixture of the active compounds A and B at the concentrations a and b • x efficacy, expressed in % of the untreated control, when using the active compound A at the concentration a • y efficacy, expressed in % of the untreated control, when using the active compound B at the concentration b
Young seedlings of tomato plants were grown in pots. […] After 5 days at 20 to 22° C. and a relative humidity close to 100%, the extent of fungal attack on the leaves was visually assessed as % diseased leaf area.

Phytophthora infestans [1] = assay type: in vivo
Pyrenophora teres = assay: Use Example 7: control of net blotch on barley; assay type: in vivo, Pyrenophora (syn. Drechslera) teres
Procedure: as §1, §2, §3
(§9) The expected efficacies of active compound combinations were determined using Colby's formula (Colby, S. R. “Calculating synergistic and antagonistic responses of herbicide combinations”, Weeds, 15, pp. 20-22, 1967) and compared with the observed efficacies. […]
The first fully developed leaves of pot grown barley plants were sprayed to run-off with an aqueous suspension, containing the concentration of active ingredient or their mentioned in the table below. […] After 6 days of cultivation at 20-24° C. and a relative humidity close to 70%, the extent of fungal attack on the leaves was visually assessed as % leaf area.

Phytophthora infestans [2] = assay type: cell-based
Phytophthora infestans [3] = assay type: cell-based; remark: listed apart in the source
Botrytis cinerea [4] = assay: Use Example 9.2: activity against grey mold in the microtiterplate test; assay type: cell-based
[5] = tested on: Ramularia collo-cygni/Physiological leaf spots; assay: Control of phytopathogenic fungi in barley (statement in the description); assay type: in vivo; conditions: solo or in combination with an active compound II
Puccinia recondita [6] = assay: Use Example 5: curative control of brown rust on wheat; assay type: in vivo
Procedure: as §1, §2, §3, §4, §5, §6, §7, §8
The first two developed leaves of pot-grown wheat seedling were dusted with spores of Puccinia recondita. To ensure the success the artificial inoculation, the plants were transferred to a humid chamber without light and a relative humidity of 95 to 99% and 20 to 22° C. for 24 h. The next day the plants were sprayed to run-off with an aqueous suspension, containing the concentration of active ingredient or their mixture as described below. The plants were allowed to air-dry. Then the trial plants were cultivated for 8 days in a greenhouse chamber at 22-26° C. and a relative humidity between 65 and 70%. The extent of fungal attack on the leaves was visually assessed as % diseased leaf area.

Botrytis cinerea [7] = assay: Use Example 2: preventative control of grey mold on leaves of green pepper; assay type: in vivo; conditions: 4 ppm
Procedure: as §1, §2, §3, §4
(§10) β corresponds to the fungicidal infection of the untreated (control) plants in % […]
as §9
Young seedlings of green pepper were grown in pots to the 2 to 3 leaf stage. […] After 5 days at 22 to 24° C. and a relative humidity close to 100% the extent of fungal attack on the leaves was visually assessed as % diseased leaf area.

Septoria tritici [8] = tested on: Septoria tritici
Puccinia recondita [9] = assay: Use Example 6: preventative control of brown rust on wheat; assay type: in vivo; conditions: 0.25 ppm
Procedure: as §1, §2, §3
α corresponds to the fungicidal infection of the treated plants in % and […]
as §9
The first two developed leaves of pot-grown wheat seedling were sprayed to run-off with an aqueous suspension, containing the concentration of active ingredient or their as described below. […] The extent of fungal attack on the leaves was visually assessed as % diseased leaf area.

Pyricularia oryzae [10] = assay type: cell-based
Septoria tritici [11] = assay: Use Example 13: control of Septoria tritici; assay type: cell-based
[12] = tested on: Blumeria graminis f. sp. tritici; assay: Use Example 4: control of powdery mildew on wheat; assay type: in vivo; conditions: 0.25 ppm
Procedure: as §1, §2, §3, §9
The first fully developed leaves of pot grown wheat were sprayed to run-off with an aqueous suspension, containing the concentration of active ingredient or their mixture mentioned in the table below. […] After cultivation in the greenhouse for 7 days at 22-26° C. and a relative humidity between 60 to 90% the extent of fungal attack on the leaves was visually assessed as % diseased leaf area.

Pyricularia oryzae [13] = assay type: cell-based; conditions: 0.25 ppm
Phakopsora pachyrhizi = assay: Use Example 8: curative control of soy bean rust on soy beans; assay type: in vivo; conditions: 0.25 ppm
Procedure: as §1, §2, §3, §4, §10, §9
Leaves of pot-grown soy bean seedlings were inoculated with spores of Phakopsora pachyrhizi. […] The extent of fungal attack on the leaves was visually assessed as % diseased leaf area.

## CCN(C)C=Nc1cc(C)c(Oc2ccc(Cl)c(C(F)(F)F)c2)cc1C [N′-(4-(4-chloro-3-trifluoromethyl-phenoxy)-2,5-dimethyl-phenyl)-N-ethyl-N-methyl formamidine]
Alternaria solani
  Observed fungicidal efficacy (% of untreated control): 22%
Phytophthora infestans [1]; 1 ppm
  Observed activity (% infection): 0%
Pyrenophora teres; 0.25 ppm
  Observed efficacy (% of untreated control): 25%
Phytophthora infestans [2]; 4 ppm
  Observed activity (% infection): 33%

## CCOC(=O)C1CC(=O)C(=C(O)C2CC2)C(=O)C1 (centres unmarked) [Trinexapac-ethyl]
Phytophthora infestans [3]; 63 ppm
  Observed activity (% infection): 39%

## O=C(NCCc1ncc(C(F)(F)F)cc1Cl)c1ccccc1C(F)(F)F [fluopyram]
Botrytis cinerea [4]; 0.004 ppm
  Observed activity (%): 4%

## Cn1cc(C(=O)Nc2ccc(F)cc2-c2ccc(Cl)c(Cl)c2)c(C(F)F)n1 [N-(3′,4′-dichloro-5-fluorobiphenyl-2-yl)-1-methyl-3-difluoromethyl-1H-pyrazole-4-carboxamide]
[5]
  activity against Ramularia collo-cygni/Physiological leaf spots: excellent activity

## Clc1cccc(C(Cl)(Cl)Cl)n1 [nitrapyrin]
Botrytis cinerea [4]; 0.016 ppm
  Observed activity (%): 10%

## Clc1ccc(C2(Cn3cncn3)OCCO2)c(Cl)c1 [azaconazole]
Puccinia recondita [6]; 0.25 ppm
  Observed efficacy (% of untreated control): 0%
Botrytis cinerea [7]
  Observed efficacy (% of untreated control): 0%
Alternaria solani
  Observed fungicidal efficacy (% of untreated control): 0%
Phytophthora infestans [1]; 4 ppm
  Observed activity (% infection): 0%
Septoria tritici [8]; 0.016 ppm
  Observed activity: 19%
Puccinia recondita [9]
  Observed efficacy (% of untreated control): 0%

## CCC(=O)C1=C([O-])CC(C(=O)[O-])CC1=O.[Ca+2] (centres unmarked) [prohexadione-Ca]
Pyricularia oryzae [10]; 0.25 ppm
  Observed activity (%): 0%
Septoria tritici [11]; 0.25 ppm
  Observed fungicidal efficacy (%): 0%

## CCC(=O)C1=C([O-])CC(C(=O)[O-])CC1=O.[Ca+2] (centres unmarked) [Prohexadione-Ca]
Phytophthora infestans [3]; 16 ppm
  Observed activity (% infection): 17%

## CC1CCCCN1CCCOC(=O)c1ccc(Cl)c(Cl)c1 (centres unmarked) [piperalin]
Botrytis cinerea [4]; 0.016 ppm
  Observed activity (%): 12%

## CCN(C)C=Nc1cc(C)c(Oc2ccc(F)c(C(F)(F)F)c2)cc1C [N′-(4-(4-fluoro-3-trifluoromethyl-phenoxy)-2,5-dimethyl-phenyl)-N-ethyl-N-methyl formamidine]
Puccinia recondita [6]; 0.25 ppm
  Observed efficacy (% of untreated control): 67%
Alternaria solani
  Observed fungicidal efficacy (% of untreated control): 0%
Phytophthora infestans [1]; 16 ppm
  Observed activity (% infection): 0%
[12]
  Observed efficacy (% of untreated control): 38%
Pyrenophora teres; 1 ppm
  Observed efficacy (% of untreated control): 13%

## COC(=O)[C@@H](C)N(C(=O)Cc1ccccc1)c1c(C)cccc1C [Benalaxyl-M, benalaxyl-M, reference compound]
Pyricularia oryzae [13]
  Observed activity (%): 0%
Phytophthora infestans [2]; 16 ppm
  Observed activity (% infection): 18%

## C[N+]1(C)CCCCC1 [Mepiquat-chloride]
Phytophthora infestans [3]; 63 ppm
  Observed activity (% infection): 14%

## Cc1nn(C)c(F)c1C(=O)Nc1ccccc1C(C)CC(C)C (centres unmarked) [N-(2-(1,3-dimethylbutyl)-phenyl)-1,3-dimethyl-5-fluoro-1H-pyrazole-4-carboxylic acid amide]
Puccinia recondita [6]; 0.25 ppm
  Observed efficacy (% of untreated control): 0%
Puccinia recondita [6]; 1 ppm
  Observed efficacy (% of untreated control): 0%
Botrytis cinerea [7]
  Observed efficacy (% of untreated control): 0%
Phakopsora pachyrhizi
  Observed efficacy (% of untreated control): 60%
Phytophthora infestans [1]; 1 ppm
  Observed activity (% infection): 0%
Phytophthora infestans [1]; 4 ppm
  Observed activity (% infection): 0%
Septoria tritici [8]; 0.004 ppm
  Observed activity: 1%

## CCOC(=O)C1CC(=O)C(=C(O)C2CC2)C(=O)C1 (centres unmarked) [trinexapac-ethyl]
Pyricularia oryzae [10]; 4 ppm
  Observed activity (%): 2%
Septoria tritici [11]; 4 ppm
  Observed fungicidal efficacy (%): 2%
